From patent US6528528B2 (Warner-Lambert Company, priority 1997, dated 2003) come the findings set out here.

Series [1] concerns the target T1, rabbit reticulocyte 15-LO (Oryctolagus cuniculus, UniProt P12530).
T1 construct: Fifteen-lipoxygenase was obtained from phenylhydrazine-treated rabbits and purified per the method of Rapoport; from tissue; host or cells: reticulocytes of phenylhydrazine-treated rabbits
T1 sequence (P12530 1-663): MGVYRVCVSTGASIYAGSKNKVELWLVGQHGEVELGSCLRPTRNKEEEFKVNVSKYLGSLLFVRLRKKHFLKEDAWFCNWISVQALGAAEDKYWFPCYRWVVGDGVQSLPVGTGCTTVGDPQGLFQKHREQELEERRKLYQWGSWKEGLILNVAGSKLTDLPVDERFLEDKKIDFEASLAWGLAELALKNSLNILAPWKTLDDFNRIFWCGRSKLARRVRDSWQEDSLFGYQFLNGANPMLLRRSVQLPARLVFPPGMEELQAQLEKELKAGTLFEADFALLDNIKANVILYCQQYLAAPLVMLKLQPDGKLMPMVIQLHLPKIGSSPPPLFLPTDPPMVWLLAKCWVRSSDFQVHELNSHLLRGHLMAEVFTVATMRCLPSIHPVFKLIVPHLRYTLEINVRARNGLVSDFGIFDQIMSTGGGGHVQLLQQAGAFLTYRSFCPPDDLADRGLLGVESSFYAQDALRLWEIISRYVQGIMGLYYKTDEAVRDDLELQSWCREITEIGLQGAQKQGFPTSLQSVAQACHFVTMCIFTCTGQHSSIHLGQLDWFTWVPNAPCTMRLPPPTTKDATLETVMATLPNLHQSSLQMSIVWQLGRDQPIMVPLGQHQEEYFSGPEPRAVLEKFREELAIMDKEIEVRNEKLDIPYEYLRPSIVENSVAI
The experiment in a line: Rabbit Reticulocyte 15-LO Assay (h15LO). Conditions: Table 2; for IC50: 2U rabbit reticulocyte 15-LO, 174 μM linoleic acid, 15 minutes at 4° C. The series is classed as biochemical. The essentials: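 Purified rabbit reticulocyte 15-LO (2U) incubated with inhibitor and 174 μM linoleic acid in PBS with 0.2% Na cholate for 15 minutes at 4° C. 13-HPODE quantified by peak area against 13-HODE standard curve; % inhibition relative to uninhibited reaction.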

The structures appear in SMILES notation.

By IC50 is commonly meant the concentration needed to halve the response being measured. A lower IC50 goes with greater potency in that assay. What is called melting point is the temperature, or range, at which the solid turns liquid. Turning to `CSc1ccc(C(=O)Nc2ccccc2)cc1NC(=S)Nc1cc(Cl)cc(Cl)c1` [Example 106, 3-[3-(3,5-Dichlorophenyl)-thioureido]-4-methylsulfanyl-N-phenyl-benzamide], the melting point lay within 172 to 175 °C. In series [1], the half-maximal inhibitory concentration (IC50) was found to be 11 nM.
Consider `COc1ccc(C(=O)Nc2ccc(F)c(F)c2)cc1NC(=S)Nc1cc(Cl)cc(Cl)c1` [Example 107, 3-[3-(3,5-Dichlorophenyl)-thioureido]-N-(3,4-difluoro-phenyl)-4-methoxy-benzamide], for which the melting point is 180 to 183 °C. Besides, the IC50 in series [1] was found to be 9 nM.
In turn, `COc1ccc(C(=O)Nc2cccc(Cl)c2)cc1NC(=S)Nc1ccc(F)cc1` [Example 108, N-(3-Chlorophenyl)-3-[3-(4-fluorophenyl)-thioureido]-4-methoxy-benzamide] registered a melting point of 184 to 185 °C. For the same compound, the half-inhibitory concentration (IC50) in series [1] turned out to be 34 nM.
In turn, `COc1ccc(S(=O)(=O)Nc2ccccc2)cc1NC(=S)Nc1cc(Cl)cc(Cl)c1` [Example 109, 3-[3-(3,5-Dichlorophenyl)-thioureido]-4-methoxy-N-phenyl-benzenesulfonamide] displayed a melting point of 163 to 165 °C. The inhibition at 10 µM in series [1] (0.25 h, @ 10 μM, read-out: h15LO % @ 10 μM) is 26%.
Take `CCc1ccc(C(=O)Nc2ccccc2)cc1NC(=S)Nc1cccc(C(F)(F)F)c1` [Example 110, 4-Ethyl-N-phenyl-3-[3-(3-trifluoromethylphenyl)-thioureido]-benzamide]: the melting point fell in the range of 166 to 167 °C. The half-inhibitory concentration (IC50) in series [1] came out at 290 nM.
On the same counts, the results for `CCc1ccc(C(=O)Nc2ccc(F)c(F)c2)cc1NC(=S)Nc1cccc(C(F)(F)F)c1` [Example 111, 4-Ethyl-N-(3,4-difluorophenyl)-3-[3-(3-trifluoromethyl-phenyl)-thioureido]-benzamide] are 169 to 170 °C and 79 nM.
The like results for `COc1ccc(C(=O)Nc2cccnc2)cc1NC(=S)Nc1cccc(C(=O)O)c1` [Example 112, 3-{3-[2-Methoxy-5-(pyridin-3-ylcarbamoyl)-phenyl]-thioureido}-benzoic acid] were, in that order, 191 to 192 °C and 26 nM.
With `COc1ccc(C(=O)Nc2ccccc2)cc1NC(=S)Nc1cccc(C(=O)O)c1` [Example 113, 3-[3-(2-Methoxy-5-phenylcarbamoyl-phenyl)-thioureido]-benzoic Acid], the melting point was 196 to 197 °C. In series [1], this compound returned a concentration for half-maximal inhibition (IC50) of 52 nM.
On the same counts, the results for `O=C(Nc1ccc(F)c(NC(=S)Nc2cccc(C(F)(F)F)c2)c1)c1ccc(Cl)c(Cl)c1` [Example 114, 3,4-Dichloro-N-{4-fluoro-3-[3-(3-trifluoromethylphenyl)-thioureido]-phenyl}-benzamide] are 172 to 174 °C and 120 nM.
For `COc1ccc(NC(=O)c2ccc(Cl)c(Cl)c2)cc1NC(=S)Nc1cc(Cl)cc(Cl)c1` [Example 115, 3,4-Dichloro-N-{3-[3-(3,5-dichlorophenyl)-thioureido]-4-methoxyphenyl}-benzamide], the melting point fell in the range of 183 to 186 °C. The same compound showed an IC50 in series [1] of 44 nM.
For `COc1ccc(C(=O)Nc2ccccc2)cc1NS(=O)(=O)c1cc(Cl)cc(Cl)c1` [Example 118, 3-(3,5-Dichloro-benzenesulfonylamino)-4-methoxy-N-phenyl-benzamide], the melting point lay within 222 to 228 °C. This compound also showed a 50% inhibitory concentration (IC50) in series [1] of 49 nM.
On to `COc1ccc(C(=O)Nc2ccccc2)cc1NS(=O)(=O)c1ccccc1` [Example 120, 3-Benzenesulfonylamino-4-methoxy-N-phenyl-benzamide], for which the melting point was in the range of 190 to 194 °C. Inhibition in series [1] was half-maximal at 40 nM (IC50).
The like results for `COc1ccc(S(=O)(=O)Nc2cc(C(=O)Nc3ccccc3)ccc2OC)cc1` [Example 121, 3-(4-Methoxy-benzenesulfonylamino)-4-methoxy-N-phenyl-benzamide] were, in that order, 184 to 186 °C and 25 nM.
The like results for `COc1ccc(C(=O)Nc2ccccc2)cc1NS(=O)(=O)c1cccc([N+](=O)[O-])c1` [Example 122, 3-(3-Nitro-benzenesulfonylamino)-4-methoxy-N-phenyl-benzamide] were, in that order, 208 to 210 °C and 187 nM.
For `COc1ccc(C(=O)Nc2ccccc2)cc1NS(=O)(=O)c1cccc(Cl)c1` [Example 123, 3-(3-Chloro-benzenesulfonylamino)-4-methoxy-N-phenyl-benzamide], the melting point lay within 197 to 199 °C. In series [1], this compound returned an IC50 of 31 nM.
In the case of `COc1ccc(C(=O)Nc2ccccc2)cc1NS(=O)(=O)c1ccc(C)cc1` [Example 124, 3-(4-Methyl-benzenesulfonylamino)-4-methoxy-N-phenyl-benzamide], the melting point was in the range of 200 to 202 °C. Further, the IC50 in series [1] was found to be 48 nM.
Compound `COc1ccc(C(=O)Nc2ccccc2)cc1NS(=O)(=O)c1ccc(F)cc1` [Example 125, 3-(4-Fluoro-benzenesulfonylamino)-4-methoxy-N-phenyl-benzamide] had a melting point of 209 to 211 °C. For the same compound, the IC50 in series [1] was found to be 28 nM.
`COc1ccc(C(=O)Nc2ccccc2)cc1NS(=O)(=O)c1cc(Br)c(Br)s1` [Example 126, 3-(4,5-Dibromothiophene-2-sulfonylamino)-4-methoxy-N-phenyl-benzamide] had a melting point of 205 to 210 °C. For the same compound, the IC50 in series [1] is 48 nM.
`COc1ccc(C(=O)Nc2ccccc2)cc1NS(=O)(=O)c1ccccc1Cl` [Example 127, 3-(2-Chlorobenzenesulfonylamino)-4-methoxy-N-phenyl-benzamide]: the melting point lay within 107 to 109 °C. For the same compound, half-maximal inhibition in series [1] (IC50) was put at 167 nM.
As for `COc1ccc(C(=O)Nc2ccccc2)cc1NS(=O)(=O)c1ccc(C(F)(F)F)cc1` [Example 128, 3-(4-Trifluoromethyl-benzenesulfonylamino)-4-methoxy-N-phenyl-benzamide], the melting point lay within 197 to 198 °C. The compound also showed an IC50 in series [1] of 54 nM.
In turn, `CCCCS(=O)(=O)Nc1cc(C(=O)Nc2ccccc2)ccc1OC` [Example 129, 3-(Butane-1-sulfonylamino)-4-methoxy-N-phenyl-benzamide] displayed a melting point of 182 to 183 °C. In series [1], this compound came in with a half-inhibitory concentration (IC50) of 79 nM.
Compound `COc1ccc(C(=O)Nc2ccccc2)cc1NS(=O)(=O)c1cccc2cccnc12` [Example 130, 3-(Quinoline-8-sulfonylamino)-4-methoxy-N-phenyl-benzamide] showed a melting point of 187 to 188 °C. The compound further came in with an IC50 in series [1] of 402 nM.
In turn, `COc1ccc(C(=O)Nc2ccccc2)cc1NS(=O)(=O)c1sc(NC(C)=O)nc1C` [Example 131, 3-(2-Acetylamino-4-methylthiazole-5-sulfonylamino)-4-methoxy-N-phenyl-benzamide] returned a melting point of 260 to 261 °C. In addition, the IC50 in series [1] amounted to 609 nM.
`COc1ccc(C(=O)Nc2ccccc2)cc1NS(=O)(=O)c1cc(Cl)sc1Cl` [Example 132, 3-(2,5-Dichlorothiophene-3-sulfonylamino)-4-methoxy-N-phenyl-benzamide] yielded a melting point of 189 to 190 °C. It took 115 nM to reach half-maximal inhibition in series [1] (IC50).
On the same counts, the results for `COc1ccc(C(=O)Nc2ccccc2)cc1NS(=O)(=O)c1cccc2ccccc12` [Example 133, 3-(Naphthalene-1-sulfonylamino)-4-methoxy-N-phenyl-benzamide] are 212 to 213 °C and 58 nM.
`CCS(=O)(=O)Nc1cc(C(=O)Nc2ccccc2)ccc1OC` [Example 134, 3-Ethanesulfonylamino-4-methoxy-N-phenyl-benzamide]: the melting point lay in the range of 175 to 177 °C. The compound also came in with an IC50 in series [1] of 137 nM.
In the case of `COc1ccc(C(=O)Nc2ccccc2)cc1NS(=O)(=O)Cc1ccccc1` [Example 135, 3-Phenylmethanesulfonylamino-4-methoxy-N-phenyl-benzamide], the melting point was found to be 216 °C. The same compound registered a half-maximal inhibitory concentration (IC50) in series [1] of 63 nM.
Consider `COc1ccc(C(=O)Nc2ccccc2)cc1NS(=O)(=O)c1ccc(Cl)c(Cl)c1` [Example 136, 3-(3,4-Dichloro-benzenesulfonylamino)-4-methoxy-N-phenyl-benzamide], for which the melting point was in the range of 191 to 193 °C. Besides, the IC50 in series [1] stood at 48 nM.
On to `COc1ccc(C(=O)Nc2ccccc2)cc1NS(=O)(=O)c1ccc(F)cc1F` [Example 137, 3-(2,4-Difluoro-benzenesulfonylamino)-4-methoxy-N-phenyl-benzamide], for which the melting point fell in the range of 198 to 200 °C. In series [1], this compound showed an IC50 of 151 nM.
`COc1ccc(C(=O)Nc2ccccc2)cc1NS(=O)(=O)c1cccc(C)c1` [Example 138, 3-(Toluene-3-sulfonylamino)-4-methoxy-N-phenyl-benzamide] showed a melting point of 195 to 197 °C. The compound also showed a half-maximal inhibitory concentration (IC50) in series [1] of 28 nM.
